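96-well plates; 48 h exposure; 5 concentrations. Endpoints by linear interpolation between flanking doses. Not reached: highest tested concentration assigned. TGI: concentration producing complete growth inhibition.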
How the values were obtained:
Experiment in all cases: growth of human tumour cells (NCI), 48 h
HS 578T breast = system: HS 578T breast
A498 renal = system: A498 renal
MCF7 breast = system: MCF7 breast
UACC-257 melanoma = system: UACC-257 melanoma
786-0 renal = system: 786-0 renal
HOP-92 NSCLC = system: HOP-92 NSCLC
DU-145 prostate = system: DU-145 prostate
ACHN renal = system: ACHN renal
NCI-H226 lung = system: NCI-H226 lung
LOX IMVI melanoma = system: LOX IMVI melanoma
NCI-H522 lung = system: NCI-H522 lung
SK-MEL-5 melanoma = system: SK-MEL-5 melanoma
KM12 colon = system: KM12 colon
RXF 393 renal = system: RXF 393 renal
MOLT-4 leukemia = system: MOLT-4 leukemia
OVCAR-8 ovarian = system: OVCAR-8 ovarian
TK-10 renal = system: TK-10 renal
SK-MEL-28 melanoma = system: SK-MEL-28 melanoma
HCT-15 colon = system: HCT-15 colon
A549 NSCLC = system: A549 NSCLC
OVCAR-3 ovarian = system: OVCAR-3 ovarian
IGROV1 ovarian = system: IGROV1 ovarian
COLO 205 colon = system: COLO 205 colon
SF-268 CNS = system: SF-268 CNS
MALME-3M melanoma = system: MALME-3M melanoma
HCC-2998 colon = system: HCC-2998 colon
HCT-116 colon = system: HCT-116 colon
CAKI-1 renal = system: CAKI-1 renal
OVCAR-5 ovarian = system: OVCAR-5 ovarian
HT29 colon = system: HT29 colon
PC-3 prostate = system: PC-3 prostate
U251 CNS = system: U251 CNS
UO-31 renal = system: UO-31 renal
BT-549 breast = system: BT-549 breast
SF-295 CNS = system: SF-295 CNS
HOP-62 NSCLC = system: HOP-62 NSCLC
NCI-H23 lung = system: NCI-H23 lung
SNB-19 CNS = system: SNB-19 CNS
OVCAR-4 ovarian = system: OVCAR-4 ovarian
SW-620 colon = system: SW-620 colon
MDA-N = system: MDA-N
CCRF-CEM leukemia = system: CCRF-CEM leukemia
SF-539 CNS = system: SF-539 CNS
NCI-H460 lung = system: NCI-H460 lung
MDA-MB-231 breast = system: MDA-MB-231 breast
SN12C renal = system: SN12C renal
RPMI-8226 leukemia = system: RPMI-8226 leukemia
SR leukemia = system: SR leukemia
HL-60(TB) leukemia = system: HL-60(TB) leukemia
MDA-MB-435 = system: MDA-MB-435
K-562 leukemia = system: K-562 leukemia
NCI/ADR-RES ovarian = system: NCI/ADR-RES ovarian
EKVX NSCLC = system: EKVX NSCLC
UACC-62 melanoma = system: UACC-62 melanoma
SK-MEL-2 melanoma = system: SK-MEL-2 melanoma
T-47D breast = system: T-47D breast
M14 melanoma = system: M14 melanoma

Measured: TGI

CC(NC(=O)C(N)Cc1ccc(O)cn1)C(=O)O (stereo not given)
> 100 µM: HS 578T breast | A498 renal | MCF7 breast | UACC-257 melanoma | 786-0 renal | HOP-92 NSCLC | DU-145 prostate | ACHN renal | NCI-H226 lung | LOX IMVI melanoma | NCI-H522 lung | SK-MEL-5 melanoma | KM12 colon | RXF 393 renal | MOLT-4 leukemia | OVCAR-8 ovarian | TK-10 renal | SK-MEL-28 melanoma | HCT-15 colon | A549 NSCLC | OVCAR-3 ovarian | IGROV1 ovarian | COLO 205 colon | SF-268 CNS | MALME-3M melanoma | HCC-2998 colon | HCT-116 colon | CAKI-1 renal | OVCAR-5 ovarian | HT29 colon | PC-3 prostate | U251 CNS | UO-31 renal | BT-549 breast | SF-295 CNS | HOP-62 NSCLC | NCI-H23 lung | SNB-19 CNS | OVCAR-4 ovarian | SW-620 colon | MDA-N | CCRF-CEM leukemia | SF-539 CNS | NCI-H460 lung | MDA-MB-231 breast | SN12C renal | RPMI-8226 leukemia | SR leukemia | HL-60(TB) leukemia | MDA-MB-435 | K-562 leukemia | NCI/ADR-RES ovarian | EKVX NSCLC

CSC(=NCCCCN=C(NS(=O)(=O)c1ccc(Cl)cc1)SC)NS(=O)(=O)c1ccc(Cl)cc1
> 100 µM: A498 renal | MCF7 breast | UACC-257 melanoma | 786-0 renal | HOP-92 NSCLC | DU-145 prostate | ACHN renal | LOX IMVI melanoma | OVCAR-8 ovarian | TK-10 renal | SK-MEL-28 melanoma | HCT-15 colon | UACC-62 melanoma | OVCAR-3 ovarian | IGROV1 ovarian | COLO 205 colon | SF-268 CNS | MALME-3M melanoma | HCC-2998 colon | SK-MEL-2 melanoma | HCT-116 colon | CAKI-1 renal | OVCAR-5 ovarian | HT29 colon | PC-3 prostate | U251 CNS | UO-31 renal | SF-295 CNS | HOP-62 NSCLC | T-47D breast | SNB-19 CNS | OVCAR-4 ovarian | SW-620 colon | MDA-N | CCRF-CEM leukemia | SF-539 CNS | NCI-H460 lung | MDA-MB-231 breast | SN12C renal | RPMI-8226 leukemia | M14 melanoma | SR leukemia | HL-60(TB) leukemia | MDA-MB-435 | K-562 leukemia | NCI/ADR-RES ovarian | EKVX NSCLC

Source: PubChem BioAssay (NCI)
